Target: T1, human CRALBP protein (Homo sapiens, UniProt P12271)
T1 construct: purchased GeneTex GTX109228-pro
Assay: CRALBP binding assay, Biacore surface plasmon resonance (proteinA/G capture)
Settings: for Ka: 1:1 binding model, Biacore T200
Protocol: Binding of 11-cis-retinol to human CRALBP protein was assessed for affinity determinations using Biacore. Kinetic rate constants was performed via surface plasmon resonance (SPR) using the Biacore T200 instrument (Cytiva, formerly GE Healthcare Lifesciences) as described below. The proteinA/G capture method was utilized in order to determine kinetics for 11-cis-retinol.
Recombinant proteinA/G (PIERCE, Cat #21186) was immobilized on the chip surface by using amino-coupling procedure according to the supplier's instruction (Cytiva, BR-1000-50). This immobilized proteinA/G captured commercial anti-CRALBP mouse IgG (Sigma, WH0006017M1, lot #11319-1H7), which then captured human CARLBP protein (GeneTex, GTX109228-pro, lot #42226) on chip surface. The 11-cis-retinol (Biosynth Carbosynth, FR163659) flowed over as analyte.
The 11-cis-retinol concentration started at […] and was serially diluted at one part to one part for five levels of concentration. Regeneration was performed at the end of each cycle using Glycine-HCl pH2.0 (Cytiva, BR-1003-55). The sample dilution step and Biacore experiment were performed either under ambient light or dark condition in which the Biacore sample compartment door was covered by aluminum foil.
Double reference subtraction was completed to generate final data. Kinetic rate constants was obtained by applying 1:1 binding model with Biacore T200 evaluation 3.0 software, wherein the Rmax values were fit locally. Binding was assess under dark and ambient light conditions.

T1 sequence (P12271 whole entry): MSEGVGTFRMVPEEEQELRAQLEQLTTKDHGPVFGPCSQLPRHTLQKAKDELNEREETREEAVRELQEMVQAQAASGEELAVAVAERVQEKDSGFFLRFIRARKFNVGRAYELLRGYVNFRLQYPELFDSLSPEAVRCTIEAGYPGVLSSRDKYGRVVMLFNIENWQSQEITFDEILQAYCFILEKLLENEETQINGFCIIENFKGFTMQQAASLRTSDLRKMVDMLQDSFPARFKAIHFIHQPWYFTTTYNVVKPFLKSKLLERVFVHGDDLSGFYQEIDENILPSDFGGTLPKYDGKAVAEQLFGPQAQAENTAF

- binding to human CRALBP (ambient light (FIG. 2A)): able to bind
- Ka (ambient light): 12.69 M⁻¹ s⁻¹
- binding to human CRALBP (dark (FIG. 2B)): able to bind
- Ka (dark): 21.03 M⁻¹ s⁻¹
SMILES: CC1=C(/C=C/C(C)=C/C=C\C(C)=C\CO)C(C)(C)CCC1 [11-cis-retinol]
